From patent US11000506B2, “Envenomation therapies and related pharmaceutical compositions, systems and kits” (OPHIREX, INC, priority 2014, dated 2021)
Where a SMILES comes first, the peptide text is derived from it.

Columns and labels:
Format in all cases: biochemical
C. atrox venom MP = assay: HTS for inhibitors of C. Atrox venom MP; details: compounds approximately 10 μM/well
Method: (§1) Background. Phospholipase A2 (PLA2) catalyzes the hydrolysis of phospholipids at the sn-2 position yielding a free fatty acid and a lysophospholipid. The release of arachidonic acid from membrane phospholipids by PLA is believed to be a key step in the control of eicosanoid production within the cell. The Bee Venom PLA2 Control was a 100 μg/ml solution of bee venom PLA2 is supplied as a positive control in the kit (Abcam kit catalog number ab133089). Substrate for MP was DQ Gelatin and assay run per EnzChek gelatinase assay manufacturers instructions. Venom MP activity was not optimized in initial experiments, but reaction rates were during experiments performed by an independently contracted laboratory. SP assay was performed using Nα-Benzoyl-L-arginine-7-amido-4-methylcoumarin hydrochloride. These kits were stored as specified if stored at −20° C. Unless otherwise specified, in the case of my experiments, only crude, unfractionated lyophilized venom purchased from Sigma or the Miami Serpentarium were used. Plate Setup: Manufacturers guidelines (paraphrased herein) were followed unless otherwise specified. Data Analysis: xcel per manufacturers recommendations. MP and SP assays were prepared and plated in the same manner as PLA2 assays except substrates and fluorophores were different. PBS was the buffer in the case of MP and SP assays and absorbance measured at 495 nm. Substrate for MP was DQ Gelatin and assay run per EnzChek gelatinase assay manufacturers instructions except that experiments were run, unconventionally at 37 C to estimate human body temperature and initial experiments for PLA2, MP activity and SP activity were not optimized for screening (e.g. extremely high doses of venom were used—10 mg/mL stock in all cases since the quality of the venom was unknown with final concentration of 0.444 mg/mL in the test wells). SP assay was performed using Na-Benzoyl-L-arginine-7-amido-4-methylcoumarin hydrochloride (Sigma). Specifics of contract laboratory technique vary from the present inventor's initial experiments in terms of venom and substrate optimization, plate size (384 instead of 96), volume and temperature and other factors including different operators such as those described immediately below, performed following the first pilot experiments and subsequently extended by a contract laboratory.
(§2) Small molecule screening and dose-response experiments took place in the Yale Center for Molecular Discovery. Instrumentation used when indicated included Tecan EVO (2), Tecan Aquarius, Matrix PlateMatePlus (2), Matrix PlateMate2×2 liquid transfer robots and Titertek and Thermo Multidrop liquid dispensers (7). PerkinElmer EnVision (3) and Tecan infinite M1000 (2) plate readers sensitively measure absorbance, fluorescence, fluorescence polarization and luminescence in 96- and 384-well plate formats. A GE InCell Analyzer 2200 imaging system acquires multicolor fluorescent and transmitted light images from plates. Piloting collections used in the first phases of screening were selected by the inventor or from libraries of known compounds and natural products available at the time of experiments on selected venoms including: NCC, GenPlus, Pharmakon, Bioactive lipids, Protease Inhibitors, Procured Drugs and FDA Approved Drugs libraries. The GenPlus (the NINDS Custom Collection) from MicroSource Discovery Systems contains 960 compounds. […]

E. carinatus venom MP = assay: HTS for inhibitors of E. carinatus venom MP; details: compounds approximately 10 μM/well
Method: as §1, §2

M. fulvius venom PLA2 = assay: HTS for inhibitors of M. fulvius venom PLA2; details: compounds approximately 10 μM/well
[1] = system: snake venom metalloproteinase; assay: time course of metalloproteinase activity with excess venom (FIG. 2A); details: inhibitors 100 uM; venom 0.444 mg/mL
Method: Substrate for MP was DQ Gelatin and assay run per EnzChek gelatinase assay manufacturers instructions. Venom MP activity was not optimized in initial experiments, but reaction rates were during experiments performed by an independently contracted laboratory. SP assay was performed using Nα-Benzoyl-L-arginine-7-amido-4-methylcoumarin hydrochloride. […] Unless otherwise specified, in the case of my experiments, only crude, unfractionated lyophilized venom purchased from Sigma or the Miami Serpentarium were used. Plate Setup: Manufacturers guidelines (paraphrased herein) were followed unless otherwise specified. Data Analysis: xcel per manufacturers recommendations. MP and SP assays were prepared and plated in the same manner as PLA2 assays except substrates and fluorophores were different. PBS was the buffer in the case of MP and SP assays and absorbance measured at 495 nm. Substrate for MP was DQ Gelatin and assay run per EnzChek gelatinase assay manufacturers instructions except that experiments were run, unconventionally at 37 C to estimate human body temperature and initial experiments for PLA2, MP activity and SP activity were not optimized for screening (e.g. extremely high doses of venom were used—10 mg/mL stock in all cases since the quality of the venom was unknown with final concentration of 0.444 mg/mL in the test wells). SP assay was performed using Na-Benzoyl-L-arginine-7-amido-4-methylcoumarin hydrochloride (Sigma). Specifics of contract laboratory technique vary from the present inventor's initial experiments in terms of venom and substrate optimization, plate size (384 instead of 96), volume and temperature and other factors including different operators such as those described immediately below, performed following the first pilot experiments and subsequently extended by a contract laboratory.
Screening was carried out for inhibitors of venom sPLA2, MP and SPs. Stock solutions of venom at 10 mg/mL were used without typical dilution for assaying various inhibitors of sPLA2, MP and SPs. The final venom concentration in the assays was very high at 0.444 mg/mL.

[2] = molecular target: snake venom metalloproteinase; assay: IC50 for MP inhibition on various venoms (Table 8, FIG. 20); details: general statement; values only in figures
[3] = system: Oxyuranus scutellatus venom serine protease; assay: inhibition of venom serine proteases in vitro (FIG. 14); details: elapid Oxyuranus scutellatus
Method: Substrate for MP was DQ Gelatin and assay run per EnzChek gelatinase assay manufacturers instructions. Venom MP activity was not optimized in initial experiments, but reaction rates were during experiments performed by an independently contracted laboratory. SP assay was performed using Nα-Benzoyl-L-arginine-7-amido-4-methylcoumarin hydrochloride. […] Unless otherwise specified, in the case of my experiments, only crude, unfractionated lyophilized venom purchased from Sigma or the Miami Serpentarium were used. Plate Setup: Manufacturers guidelines (paraphrased herein) were followed unless otherwise specified. […] MP and SP assays were prepared and plated in the same manner as PLA2 assays except substrates and fluorophores were different. PBS was the buffer in the case of MP and SP assays and absorbance measured at 495 nm. Substrate for MP was DQ Gelatin and assay run per EnzChek gelatinase assay manufacturers instructions except that experiments were run, unconventionally at 37 C to estimate human body temperature and initial experiments for PLA2, MP activity and SP activity were not optimized for screening (e.g. extremely high doses of venom were used—10 mg/mL stock in all cases since the quality of the venom was unknown with final concentration of 0.444 mg/mL in the test wells). SP assay was performed using Na-Benzoyl-L-arginine-7-amido-4-methylcoumarin hydrochloride (Sigma). […]

SMILES	percental (%) reduction of MP activity (C. atrox venom MP) [%]	% Effect on E. carinatus venom MP (E. carinatus venom MP) [%]	also measured
CCCCC[C@H](CC(=O)NO)C(=O)N[C@H](C(=O)N1CCC[C@H]1CO)C(C)C [Actinonin]	92		
COC(=O)[C@H](Cc1ccccc1)NC(=O)[C@@H](N)CC(=O)O [Aspartame] (H-Asp-Phe-OMe)	6.31	6	
COc1ccc(S(=O)(=O)N(Cc2cccnc2)[C@@H](C(=O)NO)C(C)C)cc1 [CGS 27023]	> 95		
CCN(CC)CC(=O)Nc1c(C)cccc1C [Lidocaine]			% effect (% inhibition) on M. fulvius venom PLA2 (M. fulvius venom PLA2): 11%
CC(=O)N[C@@H](CS)C(=O)O [NAC, N-Acetyl Cysteine]			inhibition of metalloproteinase activity (time course) [1]: varying levels of MP inhibition
N=C(N)c1ccc2cc(OC(=O)c3ccc(N=C(N)N)cc3)ccc2c1 [Nafamostat]		28	IC50s on various venoms [2]: micromolar range; activity against venom serine protease in vitro [3]: surprising activity
NC[C@H](O)c1ccc(O)c(O)c1 [Norepinephrine]		28	
Cc1ccc(C(=O)Nc2ccc(S(=O)(=O)O)c3cc(S(=O)(=O)O)cc(S(=O)(=O)O)c23)cc1NC(=O)c1cccc(NC(=O)Nc2cccc(C(=O)Nc3cc(C(=O)Nc4ccc(S(=O)(=O)O)c5cc(S(=O)(=O)O)cc(S(=O)(=O)O)c45)ccc3C)c2)c1 [Suramin]			% effect (% inhibition) on M. fulvius venom PLA2 (M. fulvius venom PLA2): 21%
